Earlier results, collected in patent US7931880B2, “Production of silver sulfate grains using inorganic additives” (Eastman Kodak Company, priority 2007, dated 2011).

How the values were obtained:
Staphylococcus aureus = conditions: in polymethylmethacrylate bone cement at 0.5% concentration
Pseudomonas aeruginosa = conditions: in polymethylmethacrylate bone cement at 0.5% concentration
Escherichia coli = conditions: in polymethylmethacrylate bone cement at 0.5% concentration

## O=S(=O)([O-])[O-].[Ag+].[Ag+] [silver sulfate]
Staphylococcus aureus
  inhibition of bacterial growth: significantly inhibit
Pseudomonas aeruginosa
  inhibition of bacterial growth: significantly inhibit
Escherichia coli
  inhibition of bacterial growth: significantly inhibit

## [Cl][Ag] [Silver chloride]
Staphylococcus aureus
  inhibition of bacterial growth: significantly inhibit
Pseudomonas aeruginosa
  inhibition of bacterial growth: significantly inhibit
Escherichia coli
  inhibition of bacterial growth: significantly inhibit

## silver oxide
Staphylococcus aureus
  inhibition of bacterial growth: significantly inhibit
Pseudomonas aeruginosa
  inhibition of bacterial growth: significantly inhibit
Escherichia coli
  inhibition of bacterial growth: significantly inhibit

## [Na+].[Na+].[O]=[W](=[O])([O-])[O-] [Na2WO4, sodium tungstate]
Silver salt of the additive anion
  Additive Silver Solubility: 0.0070 g/100 mL
Sulfate salt of the additive cation
  Additive Sulfate Solubility: 7.7 g/100 mL
